Our source for the Dmax and DC50 values is patent publication US20250114345A1, “COMPOUNDS AND COMPOSITIONS AS CBP/P300 DEGRADERS AND USES THEREOF” (Oncopia Therapeutics, Inc. d/b/a/ SK Life Science Labs, priority 2023, published 2025).

For one test, the target named is T1, p300 (Homo sapiens, UniProt Q09472).
T1 construct: host or cells: A549 P300 HiBit cells
The test is described as follows: P300 degradation, HiBit technology in A549 P300 HiBit cells (2 h). The class given is cell-based. The following applies: 2 hrs post treatment; for Dmax: A549, A549 P300 HiBit cells; for DC50: A549 P300 HiBit cells. Put shortly: (§1)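 Endogenously HiBiT-tagged A549 cells are plated, left overnight, then treated with a compound dilution series at 37 °C and 5% CO2. At the set time, lytic detection buffer is added and plates are shaken 10 min at room temperature before luminescence is measured to derive potency and Dmax.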

The target in a further test is T2, CBP (Homo sapiens, UniProt Q92793).
T2 construct: host or cells: A549 CBP HiBit cells
In words: CBP degradation, HiBit technology in A549 CBP HiBit cells (24 h). The class given is cell-based. The following applies: 24 hrs post treatment. In outline: as §1

T2 sequence (Q92793 whole entry): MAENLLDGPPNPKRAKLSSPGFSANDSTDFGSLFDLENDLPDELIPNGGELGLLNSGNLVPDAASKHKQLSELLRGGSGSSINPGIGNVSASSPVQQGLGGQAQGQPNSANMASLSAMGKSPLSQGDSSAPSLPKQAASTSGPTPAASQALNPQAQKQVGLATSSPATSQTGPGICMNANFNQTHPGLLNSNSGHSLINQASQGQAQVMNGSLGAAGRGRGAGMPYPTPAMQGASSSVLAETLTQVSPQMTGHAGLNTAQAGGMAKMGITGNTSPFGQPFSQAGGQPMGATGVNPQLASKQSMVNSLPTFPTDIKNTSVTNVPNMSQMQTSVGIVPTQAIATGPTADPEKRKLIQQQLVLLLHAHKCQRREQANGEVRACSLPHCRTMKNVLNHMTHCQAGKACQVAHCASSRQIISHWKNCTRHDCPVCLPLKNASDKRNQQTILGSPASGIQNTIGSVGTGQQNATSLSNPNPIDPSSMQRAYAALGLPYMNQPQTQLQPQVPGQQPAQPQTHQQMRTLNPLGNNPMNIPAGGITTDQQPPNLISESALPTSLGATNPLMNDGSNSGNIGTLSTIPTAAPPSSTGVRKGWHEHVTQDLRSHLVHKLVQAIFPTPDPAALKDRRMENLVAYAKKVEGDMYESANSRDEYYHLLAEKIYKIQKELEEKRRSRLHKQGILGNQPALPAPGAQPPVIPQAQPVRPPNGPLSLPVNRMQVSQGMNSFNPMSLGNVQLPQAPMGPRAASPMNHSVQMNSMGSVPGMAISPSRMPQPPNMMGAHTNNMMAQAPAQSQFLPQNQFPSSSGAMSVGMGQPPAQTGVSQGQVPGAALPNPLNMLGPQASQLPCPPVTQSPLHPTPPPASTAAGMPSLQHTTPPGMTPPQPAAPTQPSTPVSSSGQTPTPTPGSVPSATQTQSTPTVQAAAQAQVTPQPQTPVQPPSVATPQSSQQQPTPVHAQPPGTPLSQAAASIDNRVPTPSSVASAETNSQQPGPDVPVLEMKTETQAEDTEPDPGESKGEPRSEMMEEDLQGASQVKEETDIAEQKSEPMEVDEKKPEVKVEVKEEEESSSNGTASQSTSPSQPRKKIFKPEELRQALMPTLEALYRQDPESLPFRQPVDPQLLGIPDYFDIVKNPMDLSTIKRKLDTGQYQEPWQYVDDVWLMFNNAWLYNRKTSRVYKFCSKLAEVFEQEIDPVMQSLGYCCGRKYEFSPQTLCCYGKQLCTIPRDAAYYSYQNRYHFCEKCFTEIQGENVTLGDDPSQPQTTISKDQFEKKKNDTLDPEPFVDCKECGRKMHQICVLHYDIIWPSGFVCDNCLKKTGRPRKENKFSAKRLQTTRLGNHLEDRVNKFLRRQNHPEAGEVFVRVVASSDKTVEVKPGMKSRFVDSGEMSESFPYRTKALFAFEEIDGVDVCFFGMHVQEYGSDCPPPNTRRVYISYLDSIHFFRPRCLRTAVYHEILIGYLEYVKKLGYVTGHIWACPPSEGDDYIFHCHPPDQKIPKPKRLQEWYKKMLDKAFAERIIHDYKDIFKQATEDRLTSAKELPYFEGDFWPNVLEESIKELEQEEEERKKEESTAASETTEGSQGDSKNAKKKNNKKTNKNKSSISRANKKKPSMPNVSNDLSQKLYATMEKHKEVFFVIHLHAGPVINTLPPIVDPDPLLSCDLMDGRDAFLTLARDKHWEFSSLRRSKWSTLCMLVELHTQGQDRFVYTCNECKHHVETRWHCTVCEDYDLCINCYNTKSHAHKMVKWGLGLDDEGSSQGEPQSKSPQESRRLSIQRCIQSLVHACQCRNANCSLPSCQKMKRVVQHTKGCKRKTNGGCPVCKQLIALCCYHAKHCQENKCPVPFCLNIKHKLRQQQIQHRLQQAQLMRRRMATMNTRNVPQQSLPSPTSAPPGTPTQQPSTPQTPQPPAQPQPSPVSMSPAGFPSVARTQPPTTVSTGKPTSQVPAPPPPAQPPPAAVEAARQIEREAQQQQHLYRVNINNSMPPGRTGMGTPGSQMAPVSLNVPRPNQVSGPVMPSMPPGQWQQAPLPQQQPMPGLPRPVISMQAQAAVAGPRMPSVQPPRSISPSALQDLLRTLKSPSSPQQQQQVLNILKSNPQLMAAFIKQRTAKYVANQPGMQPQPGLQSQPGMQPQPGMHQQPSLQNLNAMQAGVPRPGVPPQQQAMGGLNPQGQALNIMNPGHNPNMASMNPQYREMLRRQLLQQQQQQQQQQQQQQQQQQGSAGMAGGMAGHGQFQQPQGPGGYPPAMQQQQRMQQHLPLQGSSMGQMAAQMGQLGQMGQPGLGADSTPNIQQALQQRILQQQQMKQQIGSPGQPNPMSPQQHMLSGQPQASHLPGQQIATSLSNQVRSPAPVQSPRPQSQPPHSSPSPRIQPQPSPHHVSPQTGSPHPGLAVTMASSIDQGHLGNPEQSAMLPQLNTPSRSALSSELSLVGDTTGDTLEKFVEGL
T1 sequence (Q09472 whole entry): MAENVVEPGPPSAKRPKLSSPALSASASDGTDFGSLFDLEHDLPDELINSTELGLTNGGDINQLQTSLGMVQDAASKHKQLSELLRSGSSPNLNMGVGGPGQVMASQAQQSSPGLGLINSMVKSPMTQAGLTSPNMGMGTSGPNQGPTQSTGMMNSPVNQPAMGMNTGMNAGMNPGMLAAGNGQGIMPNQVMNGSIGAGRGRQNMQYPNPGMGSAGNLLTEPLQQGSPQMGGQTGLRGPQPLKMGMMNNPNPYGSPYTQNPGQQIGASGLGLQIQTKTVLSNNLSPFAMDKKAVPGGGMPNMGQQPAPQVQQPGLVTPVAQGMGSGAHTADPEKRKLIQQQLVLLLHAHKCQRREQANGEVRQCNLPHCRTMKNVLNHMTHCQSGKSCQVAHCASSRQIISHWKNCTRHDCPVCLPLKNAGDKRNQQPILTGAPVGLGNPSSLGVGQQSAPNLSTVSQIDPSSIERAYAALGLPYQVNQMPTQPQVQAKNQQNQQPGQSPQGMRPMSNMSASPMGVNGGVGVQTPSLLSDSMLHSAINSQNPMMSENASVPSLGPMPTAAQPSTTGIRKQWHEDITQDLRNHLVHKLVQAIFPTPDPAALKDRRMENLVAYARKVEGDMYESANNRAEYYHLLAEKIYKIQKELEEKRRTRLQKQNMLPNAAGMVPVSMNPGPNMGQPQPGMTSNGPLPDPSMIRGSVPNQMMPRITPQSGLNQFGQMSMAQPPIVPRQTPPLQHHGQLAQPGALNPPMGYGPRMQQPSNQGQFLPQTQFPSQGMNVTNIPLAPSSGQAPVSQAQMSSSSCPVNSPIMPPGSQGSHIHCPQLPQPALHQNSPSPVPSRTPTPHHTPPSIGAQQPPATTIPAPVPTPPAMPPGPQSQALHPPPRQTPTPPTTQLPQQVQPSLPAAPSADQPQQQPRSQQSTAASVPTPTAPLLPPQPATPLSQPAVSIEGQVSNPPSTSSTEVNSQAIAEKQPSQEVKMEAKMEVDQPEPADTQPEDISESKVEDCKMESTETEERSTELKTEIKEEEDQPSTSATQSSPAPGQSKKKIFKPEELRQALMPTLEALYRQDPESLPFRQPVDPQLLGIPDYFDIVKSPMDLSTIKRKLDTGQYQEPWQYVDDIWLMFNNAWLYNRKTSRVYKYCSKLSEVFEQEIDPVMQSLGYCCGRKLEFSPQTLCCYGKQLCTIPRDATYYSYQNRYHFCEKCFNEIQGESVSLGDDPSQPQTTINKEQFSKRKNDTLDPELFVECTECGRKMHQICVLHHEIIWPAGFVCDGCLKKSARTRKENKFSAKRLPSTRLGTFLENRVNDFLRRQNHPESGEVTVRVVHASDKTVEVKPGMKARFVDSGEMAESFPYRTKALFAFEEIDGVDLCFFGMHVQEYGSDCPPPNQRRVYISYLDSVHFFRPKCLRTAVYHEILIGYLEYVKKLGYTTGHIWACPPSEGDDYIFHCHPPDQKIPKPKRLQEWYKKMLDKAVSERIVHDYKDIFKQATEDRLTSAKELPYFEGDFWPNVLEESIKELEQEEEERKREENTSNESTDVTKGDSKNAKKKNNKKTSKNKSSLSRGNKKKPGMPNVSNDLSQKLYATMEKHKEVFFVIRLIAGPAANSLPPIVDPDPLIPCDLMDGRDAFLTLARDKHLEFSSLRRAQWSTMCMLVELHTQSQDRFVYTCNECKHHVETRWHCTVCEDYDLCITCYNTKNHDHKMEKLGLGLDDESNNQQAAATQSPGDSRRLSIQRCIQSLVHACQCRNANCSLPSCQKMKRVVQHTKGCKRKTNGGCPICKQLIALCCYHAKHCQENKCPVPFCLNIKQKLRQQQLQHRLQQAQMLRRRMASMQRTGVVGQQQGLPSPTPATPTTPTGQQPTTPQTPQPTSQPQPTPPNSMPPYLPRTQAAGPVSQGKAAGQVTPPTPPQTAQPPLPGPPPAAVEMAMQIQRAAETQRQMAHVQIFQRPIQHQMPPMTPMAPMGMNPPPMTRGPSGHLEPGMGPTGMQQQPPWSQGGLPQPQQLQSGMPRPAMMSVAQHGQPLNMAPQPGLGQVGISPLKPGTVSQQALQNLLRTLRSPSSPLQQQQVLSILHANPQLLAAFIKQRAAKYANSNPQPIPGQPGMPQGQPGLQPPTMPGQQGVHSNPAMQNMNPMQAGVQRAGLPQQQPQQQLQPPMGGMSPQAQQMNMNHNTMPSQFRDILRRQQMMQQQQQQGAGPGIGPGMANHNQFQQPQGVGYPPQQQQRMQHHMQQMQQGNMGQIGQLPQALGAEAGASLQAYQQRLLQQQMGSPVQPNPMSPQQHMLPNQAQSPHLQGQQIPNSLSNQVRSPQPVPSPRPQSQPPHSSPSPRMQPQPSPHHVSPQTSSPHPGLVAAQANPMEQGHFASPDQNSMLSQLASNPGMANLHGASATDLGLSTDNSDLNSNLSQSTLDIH

At p300, `Cc1cc(-c2cc3cccc(-c4ccc5c(c4)n(C)c(=O)n5C)c3cn2)cnc1C(=O)NCC#Cc1ccc2occ([C@@H]3CCC(=O)NC3=O)c2c1` [Example A61, (S)-5-(8-(1,3-dimethyl-2-oxo-2,3-dihydro-1H-benzo[d]imidazol-5-yl)isoquinolin-3-yl)-N-(3-(3-(2,6-dioxo-piperidin-3-yl)benzofuran-5-yl)prop-2-yn-1-yl)-3-methylpicolinamide] yielded a Dmax greater than 80% and a DC50 of 1 to 9.9 nM. On CBP, the DC50 is greater than 1000 nM and the Dmax was less than 20%.

For the molecule `CC(C)c1cc(-c2cccc3cc(-c4ccc(C(=O)NCC#Cc5cc6c(F)ccc(C7CCC(=O)NC7=O)c6o5)nc4)ncc23)cc2c1n(C)c(=O)n2C` (stereo not shown) [Example A185, N-(3-(7-(2,6-dioxo-piperidin-3-yl)-4-fluorobenzofuran-2-yl)prop-2-yn-1-yl)-5-(8-(7-isopropyl-1,3-dimethyl-2-oxo-2,3-dihydro-1H-benzo [d]imidazol-5-yl)isoquinolin-3-yl)picolinamide], the Dmax is 60 to 79% at p300 and less than 20% at CBP. Moreover, the DC50 at p300 was 10 to 99 nM; on CBP it was greater than 1000 nM.

On to `Cc1cc(-c2ncc3c(n2)OCCN3c2ccc3c(c2)n(C)c(=O)n3C)cnc1C(=O)NCC#Cc1cc2c([C@H]3CCC(=O)NC3=O)cccc2o1` [Example A174, (R)-5-(5-(1,3-dimethyl-2-oxo-2,3-dihydro-1H-benzo [d]imidazol-5-yl)-6,7-dihydro-5H-pyrimido [4,5-b][1,4]oxazin-2-yl)-N-(3-(4-(2,6-dioxopiperidin-3-yl)benzofuran-2-yl)prop-2-yn-1-yl)-3-methylpicolinamide], for which, at p300, the Dmax was greater than 80% and the DC50 is 1 to 9.9 nM. On CBP, the DC50 was greater than 1000 nM and the Dmax is less than 20%.

In the case of `Cc1cc2c(N3CCCc4nc(-c5ccc(C(=O)NCC#Cc6cc7c(C8CCC(=O)NC8=O)nccc7o6)nc5)ncc43)nc(N3CCC3)cc2n(C)c1=O` (stereo not shown) [Example B35, 5-(5-(7-(azetidin-1-yl)-1,3-dimethyl-2-oxo-1,2-dihydro-1,6-naphthyridin-5-yl)-5,6,7,8-tetrahydropyrido[3,2-d]pyrimidin-2-yl)-N-(3-(4-(2,6-dioxopiperidin-3-yl)furo[3,2-c]pyridin-2-yl)prop-2-yn-1-yl)picolinamide], on p300, the Dmax is greater than 80% and the DC50 was in the range of 1 to 9.9 nM. For the same molecule, on CBP, the DC50 lay within 10 to 99 nM and the Dmax was in the range of 20 to 39%.

On p300, `Cc1cc(-c2cccc3cc(-c4ccc(C(=O)NCC#Cc5ccc6occ(C7CCC(=O)NC7=O)c6c5)nc4)ncc23)cc2c1n(C)c(=O)n2C` (stereo not shown) [Example A96, N-(3-(3-(2,6-dioxo-piperidin-3-yl)benzofuran-5-yl)prop-2-yn-1-yl)-5-(8-(1,3,7-trimethyl-2-oxo-2,3-dihydro-1H-benzo[d]imidazol-5-yl)isoquinolin-3-yl)picolinamide] registered a Dmax greater than 80% and a DC50 of 1 to 9.9 nM. At CBP, the DC50 was greater than 1000 nM and the Dmax was less than 20%.

Turning to `Cc1cc(-c2ncc(N(C)c3cc(C4CCOCC4)c4c(c3)n(C)c(=O)n4C)cn2)cnc1C(=O)NCC#Cc1ccc2occ([C@H]3CCC(=O)NC3=O)c2c1` [Example A54, (R)-5-(5-((1,3-dimethyl-2-oxo-7-(tetrahydro-2H-pyran-4-yl)-2,3-dihydro-1H-benzo[d]imidazol-5-yl)(methyl)amino)pyrimidin-2-yl)-N-(3-(3-(2,6-dioxopiperidin-3-yl)benzofuran-5-yl)prop-2-yn-1-yl)-3-methylpicolinamide], the Dmax at p300 is greater than 80%; on CBP it was less than 20%. For the same molecule, the DC50 on p300 was 1 to 9.9 nM; on CBP, greater than 1000 nM.

At p300, `CC(C)c1cc(-c2cccc3cc(-c4ccc(C(=O)NCC#Cc5cc(NC6CCC(=O)NC6=O)nn5C)nc4)ncc23)cc2c1n(C)c(=O)n2C` (stereo not shown) [Example A24, N-(3-(3-((2,6-Dioxopiperidin-3-yl)amino)-1-methyl-1H-pyrazol-5-yl)prop-2-yn-1-yl)-5-(8-(7-isopropyl-1,3-dimethyl-2-oxo-2,3-dihydro-1H-benzo[d]imidazol-5-yl)isoquinolin-3-yl)picolinamide] had a Dmax greater than 80% and a DC50 of less than 1 nM. At CBP, this molecule had a DC50 greater than 1000 nM and a Dmax of less than 20%.

For the molecule `CN1CCN(c2ccc3c(c2)n(C)c(=O)n3C)c2cnc(-c3ccc(C(=O)NCC#Cc4ccc5occ(C6CCC(=O)NC6=O)c5c4)nc3)cc21` (stereo not shown) [Example A139, 5-(4-(1,3-dimethyl-2-oxo-2,3-dihydro-1H-benzo[d]imidazol-5-yl)-1-methyl-1,2,3,4-tetrahydropyrido[3,4-b]pyrazin-7-yl)-N-(3-(3-(2,6-dioxo-piperidin-3-yl)benzofuran-5-yl)prop-2-yn-1-yl)picolinamide], the Dmax on p300 is greater than 80%; at CBP, less than 20%. For the same molecule, the DC50 at p300 is less than 1 nM; at CBP it was greater than 1000 nM.

Consider `Cc1cc(-c2cc3c(cc2F)N(c2ccc4c(c2)n(C)c(=O)n4C)CCO3)cnc1C(=O)NCC#Cc1ccc2occ(C3CCC(=O)NC3=O)c2c1` (stereo not shown) [Example A111, 5-(4-(1,3-dimethyl-2-oxo-2,3-dihydro-1H-benzo[d]imidazol-5-yl)-6-fluoro-3,4-dihydro-2H-benzo[b] [1,4]oxazin-7-yl)-N-(3-(3-(2,6-dioxo-piperidin-3-yl)benzofuran-5-yl)prop-2-yn-1-yl)-3-methylpicolinamide], for which, at p300, the Dmax is greater than 80% and the DC50 lay in the range of 10 to 99 nM. On CBP, the DC50 is greater than 1000 nM and the Dmax is less than 20%.

With `CC(C)c1cc(C2CC(C)(C)Oc3cc(-c4ccc(C(=O)NCC#Cc5ccc6occ(C7CCC(=O)NC7=O)c6c5)nc4)ncc32)cc2c1n(C)c(=O)n2C` (stereo not shown) [Example A83, N-(3-(3-(2,6-dioxo-piperidin-3-yl)benzofuran-5-yl)prop-2-yn-1-yl)-5-(4-(7-isopropyl-1,3-dimethyl-2-oxo-2,3-dihydro-1H-benzo [d]imidazol-5-yl)-2,2-dimethyl-3,4-dihydro-2H-pyrano[3,2-c]pyridin-7-yl) picolinamide], the Dmax at p300 was greater than 80%; at CBP, less than 20%. Further, the DC50 is 1 to 9.9 nM at p300 and greater than 1000 nM at CBP.
